The test system of one experiment is K562. The experiment is described as follows: Cytotoxicity against human K562 cells. Type of experiment: functional. The note with it: read-out: LC50 (the source's name).
Experiment [1] addresses Phospholipase A2 (Homo sapiens) (UniProt P04054). The experiment in a line: Inhibition of PLA2 at 50 ug/ml.

Sequence of Phospholipase A2 (Homo sapiens) (P04054 23-148 limits assumed): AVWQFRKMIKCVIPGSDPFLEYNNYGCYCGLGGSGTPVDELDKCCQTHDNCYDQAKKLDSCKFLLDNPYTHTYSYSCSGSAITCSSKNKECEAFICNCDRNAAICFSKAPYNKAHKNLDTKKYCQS

As to `C#C/C=C\CCCCCCCCCCCCCC/C=C\CCCC/C=C\CCCCC#C[C@H](O)C#CCCCCCCCC[C@H](O)C#C` [PETROCORTYNE D], the CC50 in the experiment with K562 came to 45 µM. Consider `C#C/C=C\CCCCCCCCCCCCCC/C=C\CCC/C=C/C(O)CCCCC#C[C@H](O)C#CCCCCCC/C=C/[C@@H](O)C#C` (some centres undefined) [PETROCORTYNE E], for which, in the experiment on K562, the CC50 was 7 µM. In experiment [1], this compound came in with an inhibition of 48%. On the same counts, the results for `C#C/C=C\CCCCCCCCCCCCCC/C=C\CCCCC(O)/C=C/CCCC#C[C@H](O)C#CCCCCCC/C=C/[C@@H](O)C#C` (some centres undefined) [PETROCORTYNE F] are 21 µM and 25%.

Regarding `C#C/C=C\CCCCCCCCCCCCC/C=C/C(O)CCCC/C=C\CCCCC#C[C@H](O)C#CCCCCCC/C=C/[C@@H](O)C#C` (some centres undefined) [PETROCORTYNE G], the CC50 with K562 was 30 µM. Moreover, the inhibition in experiment [1] was 36%. Turning to `C#C/C=C\CCCCCCCCCCCCCCC(O)/C=C/CCC/C=C\CCCCC#C[C@H](O)C#CCCCCCC/C=C/[C@@H](O)C#C` (some centres undefined) [PETROCORTYNE H], the CC50 in the experiment with K562 worked out at 11 µM. Further, the inhibition in experiment [1] came out at 32%.

For the origin of these results see ChEMBL document CHEMBL1150963, “Five new polyacetylenes from a sponge of the genus petrosia” (1998).
